Assay [1] concerns In-Vitro Vascular Smooth Muscle of Rabbits. Description: Relaxant effect on in vitro rabbit vascular smooth muscle contraction induced by hyperkalemia solution. To be noted: for EC50: Oryctolagus cuniculus; for relaxant effect against hyperkalemia solution contraction (in words): rabbit vascular smooth muscle.
A further assay concerns α1 receptors. The assay is described as follows: Antagonism of α receptor agonist (noradrenaline / phenylephrine) cumulative contraction of rabbit aorta, pA2. The settings on record: for PA2 value against Phenylephrine contraction: Phenylephrine cumulative contraction; for PA2 value against NA contraction: noradrenaline (NA) cumulative contraction. From the text: (§1) Cut the chest open quickly after stunning, strip out the descending aorta, then after removing the surrounding connective tissue and adipose tissue (if performed serotonin receptor antagonist experiments, endothelial cells should be removed using a smooth stainless steel bars), cut the vessels into 3-5 mm vascular ring, then pass the steel hook through the blood vessel ring, with one end is fixed to the vent hook and the other end connected to the tension transducer, then place the specimens into bath tube containing 20 mL of nutrient solution, and record tension change by tension transducer. Maintain tube temperature at 37±0.5° C., and pass bubbles (95% O2+5% CO2) into the solution as a speed of 1-2 bubbles/minute. Place an initial load of 1.5 g on the rings, and change nutrient every 20 minutes, then balance for 2 hours and start test after baseline readings are stabilized.
After the tension is stabilized, record a certain length of the curve, and add NA (10^−8-10^−4 mol/L) to the tube until a maximum response is achieved, and then record the curve. Then wash the specimen with K—H solution repeatedly, balance for 1 h, add compound II-36 (3×10^−7 mol/L), and 20 minutes later, add NA following a same procedure. Mark NA contraction as ordinate using maximum response as 100% base. […] The larger the PA2 value, the stronger the antagonist effect. It is calculated based on the values of the attached figures by software.
After the tension is stabilized, record a certain length of the curve, and add NA (10^−8-10^−4 mol/L) to the tube until a maximum response is achieved, and then record the curve. Then wash the specimens repeatedly with K—H solution, and refresh K—H solution every 20 minutes, and balance for 60 minutes to allow baseline values are stabilized; then add doxazosin (10^−7 mol/L) and after 15 minutes, add NA in the same way (10^−8-6×10^−5 mol/L). Mark NA contraction as ordinate using maximum response as 100% base. […] The PA2 value of positive control doxazosin is 7.52±0.04 against NA contraction of rabbit aorta.
After the tension is stabilized, record a certain length of the curve, and add NA (3×10^−7-6×10^−5 mol/L) to the tube until a maximum response is achieved, and then record the curve. Then wash the specimen with K—H solution repeatedly, balance for 1 h, add compound II-65 (3×10^−6 mol/L), and 20 minutes later, add NA (3×10^−7-3×10^−4 mol/L) following a same procedure. Mark NA contraction as ordinate using maximum response as 100% base. […] PA2 value of compound II-65 is 6.02±0.13 against NA contraction effect on rabbit aorta.
After above procedures, wash the specimen repeatedly with K—H solution, balance for 1 hour, add doxazosin (10^−7 mol/L), and add NA in the same way after 15 minutes. Mark NA contraction as ordinate using maximum response as 100% base. […] The PA2 value of positive control doxazosin is 7.16±0.24 against NA contraction of rabbit aorta.
After the tension is stabilized, record a certain length of the curve, and add Phenylephrine (10^−6-6×10^−3 mol/L) to the tube until a maximum response is achieved, and then record the curve. Then wash the specimen with K—H solution repeatedly, balance for 1 h, add compound II-68 (3×10^−8 mol/L), and 20 minutes later, add Phenylephrine following a same procedure. Mark Phenylephrine contraction as ordinate using maximum response as 100% base. […] PA2 value of compound II-68 is 8.45±0.03 against Phenylephrine contraction effect on rabbit aorta.

A further assay has as its system Ca^2+ channel. The assay is described as follows: Antagonism of CaCl2 cumulative contraction of rabbit aorta, pA2. The settings on record: CaCl2 cumulative contraction after Ca-free hyperkalemia depolarization.
Source text: Calcium-free K—H solution: Remove CaCl2 from K—H solution, add an equal number of moles of KCl, and add EDTA^−2Na^+ 0.1 mmol/L, while the other components remain unchanged.
Calcium-free hyperkalemia solution: Remove CaCl2 from hyperkalemia solution, add an equal number of moles of KCl, and add EDTA^−2Na^+ 0.1 mmol/L, while the other components remain unchanged.
as §1
After the tension is stabilized, wash the specimen three times and incubate with Ca-free K—H solution for 40 minutes; depolarize with Ca-free hyperkalemia solution for 20 minutes, and then add CaCl2 (10^−6-10^−2 mol/L) to the tube until a maximum response is achieved, and then record the curve. Then wash with K—H solution repeatedly, and replace with fresh K—H solution every 20 minutes; after balancing for 60 minutes and the baseline values are stabilized, wash the specimen again three times, and incubate with Ca-free K—H solution for 40 minutes; depolarize with Ca-free hyperkalemia solution for 20 minutes, and then add compound II-36 (3×10^−6 mol/L) to the tube, and incubate for 20 minutes; then add CaCl2 (10^−6-10^−2 mol/L) until a maximum response is achieved, and then record the curve. Mark CaCl2 contraction as ordinate using maximum response as 100% base. […] PA2 value of compound II-36 is 5.61±0.04 against CaCl2 contraction effect on rabbit aorta.
After the tension is stabilized, wash the specimen three times and incubate with Ca-free K—H solution for 40 minutes; depolarize with Ca-free hyperkalemia solution for 20 minutes, and then add CaCl2 (10^−6-10^−2 mol/L) to the tube until a maximum response is achieved, and then record the curve. […]

Setting [2] is: relaxation of rabbit aortic rings contracted by hyperkalemia solution (K+ 60 mmol/L).

A word on the EC50: it is the concentration at which the effect is half-maximal.

Consider `FC(F)(F)c1cccc(N2CCN(CCCCn3cnc4ccccc43)CC2)c1` [Compound II-36, 1-(4-(4-(3-trifluoromethylphenyl)piperazin-1-yl)butyl)-1H-benzimidazole], for which, in assay [1] (setting [2]), it took 4.57 µM to reach a half-maximal effect (EC50). Further, the “relaxant effect against hyperkalemia solution contraction (in words)” value in assay [1] is reported as “significant relaxant effect”. Also, in the assay with α1 receptors, the “PA2 value against Phenylephrine contraction” value is recorded as 7.37±0.08 and the “PA2 value against NA contraction” value was determined as 7.37±0.08. The “PA2 value against CaCl2 contraction” value in the assay with Ca^2+ channel is given as 5.61±0.04.
With `FC(F)(F)c1cccc(N2CCN(CCCCn3nnc4ccccc43)CC2)c1` [Compound II-65, 1-(4-(4-(3-trifluoromethylphenyl)piperazin-1-yl)butyl)-1H-benzotriazole], in assay [1], the “relaxant effect against hyperkalemia solution contraction (in words)” value is recorded as “relatively significant relaxant effect”. Further, in assay [1] (setting [2]), the “−logEC50” value is reported as 5.55 ± 0.03. In the assay with α1 receptors, the “PA2 value against NA contraction” value is given as 6.02±0.13. For the same compound, the “PA2 value against CaCl2 contraction” value in the assay on Ca^2+ channel came to 6.56±0.032.
For the compound `c1ccc2c(c1)nnn2CCCCN1CCN(c2nsc3ccccc23)CC1` [Compound II-68, 3-(4-(4-(1H-benzotriazol-1-yl)butyl)piperazin-1-yl)benzisothiazole], in assay [1] (setting [2]), the EC50 was 17 µM. For the same compound, in the assay with α1 receptors, the “PA2 value against Phenylephrine contraction” value is reported as 8.45±0.03. Also, the “PA2 value against CaCl2 contraction” value in the assay on Ca^2+ channel turned out to be 5.36±0.26.

The values above are taken from patent US9802929B2, “Benzo five-membered nitrogen heterocyclic piperidine or piperazine derivatives and preparation methods and pharmaceutical compositions thereof” (Shenyang Haiwang Biotechnology Co., Ltd., priority 2012, dated 2017).
